Assay results reported in ChEMBL document CHEMBL1201862, “PubChem BioAssay data set” (2004).
One block for each molecule: values may come before it. Calls of active or inactive are those of the source.

Columns and labels:
[1] = target: T1, Estrogen receptor beta (Homo sapiens, UniProt Q92731);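 note: recombinant ER-beta bound to coactivator SRC1 peptide in presence of estradiol agonist; inhibitors block coactivator peptide binding and lower the FRET signal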
[2] = target: T1, Estrogen receptor beta; experiment: blockers of SRC-3 recruitment to ERβ – biochemical, ELISA, streptavidin-HRP readout, orthogonal assay, confirmation (AID 1060)
[3] = target: T2, Carboxy-terminal domain RNA polymerase II polypeptide A small phosphatase 1 (Homo sapiens, UniProt Q9GZU7); experiment: CTDSP1 inhibitors, concentration-response, biochemical, absorbance readout, ultra-high-throughput screen actives (AID 540297); assay type: functional
T2 sequence (Q9GZU7 whole entry): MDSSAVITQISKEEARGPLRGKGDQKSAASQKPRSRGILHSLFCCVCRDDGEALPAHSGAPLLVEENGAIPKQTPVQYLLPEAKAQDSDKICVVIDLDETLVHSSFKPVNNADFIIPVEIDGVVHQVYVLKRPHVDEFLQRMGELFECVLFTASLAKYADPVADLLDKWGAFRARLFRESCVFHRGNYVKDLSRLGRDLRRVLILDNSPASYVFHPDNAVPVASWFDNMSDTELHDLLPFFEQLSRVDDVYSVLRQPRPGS

[4] = viability loss in THP-1 monocytes – THP-1 cells, cytotoxicity control for Vif-APOBEC3G degradation inhibitor project, dose response (AID 1117359); assay type: functional; conditions: THP-1
[5] = reduction of Shn3 3'UTR-driven luciferase in osteoblasts – cell-based, Clone20 osteoblasts, firefly luciferase, cherry-picked, dose response (AID 624132); assay type: functional;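 note: firefly luciferase luminescence from reporter carrying the Shn3 3'UTR in osteoblasts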
[6] = loss of viability in HepG2 cells – cell-based, CellTiter-Glo, cherry-picked, cytotoxicity control for Shn3 inhibitor project, dose response (AID 624134); assay type: functional
[7] = non-specific 3'UTR reporter inhibition in Clone20-Shn3RL – cell-based, Renilla luciferase, cherry-picked, counter-screen for Shn3 inhibitor project, dose response (AID 624133); assay type: functional
[8] = target: Glyceraldehyde-3-phosphate dehydrogenase (Homo sapiens, UniProt P04406)
Sequence of Glyceraldehyde-3-phosphate dehydrogenase (P04406 whole entry): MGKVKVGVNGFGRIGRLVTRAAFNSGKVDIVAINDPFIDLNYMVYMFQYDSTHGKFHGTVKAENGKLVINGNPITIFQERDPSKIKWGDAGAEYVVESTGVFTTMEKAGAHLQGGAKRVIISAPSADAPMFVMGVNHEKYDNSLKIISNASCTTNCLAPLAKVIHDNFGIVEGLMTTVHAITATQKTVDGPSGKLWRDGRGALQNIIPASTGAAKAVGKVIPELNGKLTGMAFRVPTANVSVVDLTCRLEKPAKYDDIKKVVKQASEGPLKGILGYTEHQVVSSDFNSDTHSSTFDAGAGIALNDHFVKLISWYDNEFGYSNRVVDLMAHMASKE

T1 sequence (Q92731 whole entry): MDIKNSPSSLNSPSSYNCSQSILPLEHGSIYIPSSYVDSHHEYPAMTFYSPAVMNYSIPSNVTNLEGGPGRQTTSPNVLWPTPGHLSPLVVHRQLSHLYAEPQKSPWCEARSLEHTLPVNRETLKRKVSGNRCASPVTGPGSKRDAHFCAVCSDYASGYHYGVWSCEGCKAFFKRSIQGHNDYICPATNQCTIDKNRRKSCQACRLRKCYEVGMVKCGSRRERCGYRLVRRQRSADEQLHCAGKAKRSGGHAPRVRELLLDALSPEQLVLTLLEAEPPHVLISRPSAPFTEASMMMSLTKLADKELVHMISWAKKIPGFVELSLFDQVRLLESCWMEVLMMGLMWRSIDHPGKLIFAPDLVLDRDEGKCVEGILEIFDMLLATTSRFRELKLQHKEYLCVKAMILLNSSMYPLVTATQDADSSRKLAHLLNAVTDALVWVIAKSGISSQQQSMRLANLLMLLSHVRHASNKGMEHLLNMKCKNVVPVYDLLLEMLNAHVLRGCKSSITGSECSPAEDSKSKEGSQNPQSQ

SMILES: CC(=O)Nc1nonc1-c1nc2ccccc2n1N(C(C)=O)C(C)=O
IC50 [1]: 2.75 µM (active) | IC50 [2]: > 109 µM (not active)

SMILES: O=C1CSc2ccc(C(=O)Nc3cccc(S(=O)(=O)Nc4ccc(Br)cc4)c3)cc2N1
AC50 [5]: 3.08 µM (active) | AC50 [6]: 45.6 µM (active) | AC50 [7]: 8.81 µM (active)

SMILES: CCOc1ccccc1-n1nnnc1SCC(=O)NC(=O)NCc1ccco1
IC50 [1]: 7.76 µM (active) | IC50 [2]: 9.38 µM (not active)

SMILES: Cc1nc2ccc(NS(=O)(=O)c3ccc4c(c3)OCCO4)cc2s1
AC50 [5]: 0.635 µM (active) | AC50 [6]: 4.15 µM (active) | AC50 [7]: > 70 µM (inactive)

SMILES: Cc1ccnc(NC(=O)c2ccc(Cl)c(S(=O)(=O)N3CCCC3)c2)c1
CC50 [4]: > 40 µM (active)

The next lines start with results.

IC50 [3]: 1.17 µM (active)
SMILES: CC1C=CC=CC=CC=CC=CC=CC=CC(OC2OC(C)C(O)C(N)C2O)CC2OC(O)(CC(O)CC(O)C(O)CCC(O)CC(O)CC(=O)OC(C)C(C)C1O)CC(O)C2C(=O)O (centres undefined)
CC50 [4]: 3.14 µM (active)

IC50 [8]: > 50 µM (inconclusive)
SMILES: COc1cccc(N2C(=O)C(Cl)=C(N3CCN(Cc4ccccc4)CC3)C2=O)c1
